Data as given in patent publication US20130197043A1, “USE OF THE FETAL REPROGRAMMING OF A PPAR AGONIST” (SNU R&DB FOUNDATION, priority 2010, published 2013).

How the values were obtained:
[1] = Maternal treatment: side effects, fetal body weight, growth, skeleton staining; format: in vivo, mice
Method: The present inventors used a method of administering a PPAR δ agonist to a pregnant mother (maternal treatment) in order to investigate the role of fetal reprogramming of PPAR δ during mammalian development. For the fetal reprogramming, the PPAR δ agonist was orally administered to pregnant mice at a concentration of 10 mg/kg every day, and a specific experiment method was summarized in FIG. 1.
Fertile female mice and male mice were bred, and then pregnancy or not was checked by plug confirmation. CMDD1111 was orally administered to pregnant female mice at a concentration of 10 mg/kg once per day every day for six weeks (gestation and lactation periods). Side effects due to the administered material were not observed during the gestation period. The weight of a fetus group administered with vehicle during the gestation period was 1.33±0.11 g, and the weight of a fetus group administered with CMDD1111 was 1.37±0.09 g. The weight difference between the two groups was not shown (FIG. 3). In addition, growth inhibition or promotion due to the administered material was not observed in the comparison results of growth rate of fetus for 3 weeks (FIG. 4). There was no difference in body weight between the two groups as adults (FIG. 5). Deformity due to the administered material was not observed in the skeleton staining results using Alizaren red S and Alician blue dye (FIG. 6).

[2] = test system: gene expression in muscle; test: Gene expression analysis using real-time PCR in fetal-reprogrammed mice; format: in vivo
Method: A gene expression analysis experiment using the real-time PCR was conducted to further verify Miroarray analysis results. As for mouse group subjected to fetal reprogramming by administration of PPAR δ agonist (CMDD1111) during a muscular development period, there were increases in expression of core regulators for fatty acid oxidation and thermogenesis, such as carnitine palmitoyl transferase 1a (CPT-1a: 1.5 fold), uncoupling protein 3 (UCP3: 4.2 fold), acyl Co-A synthetase (ACSL: 1.4 fold), acyl Co-A dehydrogenase (ACAD10: 2.0 fold), and NDUFA12 (1.3 fold). In addition, there was a remarkable increase in expression of Adiponectin (ADIPOQ: 2.5 fold), which are commonly expressed in the slow muscle fiber and has been known to increase fatty acid oxidation to improve diabetes (FIG. 9).

[3] = test system: cytosolic calcium in differentiated muscle cells; test: Analysis of cytosolic calcium (Flou4, confocal microscope); format: cell-based, mouse; settings: 300 nM, 10 mM caffeine, calcium-free Kreb solution
Method: An experiment using a calcium-specific dye reagent, Flou4(Molecular probe), was conducted in order to confirm the effect on concentration of cytosolic calcium by the changes of RYR, SERCA, and PLN. The experiment method is as follows. The isolated muscle cells were grown on a culture plate with an attached glass slide through primary culture, and then differentiated into myotube while being treated with 300 nM of PPAR δ agonist (CMDD1111). Flou4 (final concentration: 5 μM) dye reagent was put into the differentiated muscle cells, which were then cultured for 30 minutes. The calcium-free Kreb solution was used as a culture medium to measure the change of cytosolic calcium, and treatment with 10 mM of caffeine was conducted to activate calcium channels. Intracellular calcium ion change was measured by using a confocal microscope. As the measurement result, the retention time of cytosolic calcium was increased by 43% (592±60 versus 847±77 sec) in the muscle cell to which PPAR δ agonist (CMDD1111) was added (FIG. 13). The reason was that expressions of RYR regulating calcium efflux and PLN suppressing calcium influx in the sarcoplasmic membrane were increased by PPAR δ. […]

[4] = test system: mice subjected to fetal reprogramming; test: Body weight gain on high-fat feedstuff of fetal-reprogrammed mice; format: in vivo; settings: 13-week old mice, 35% fat feedstuff, 84 days
Excerpt: Lipometabolism has deep correlation with the occurrence of obesity and diabetes. Therefore, the present inventors checked the fetal reprogramming effect of PPAR δ on the occurrence of metabolic syndrome. The control group and administration group of 13-week old mice were fed with high-fat feedstuff (fat content: 35%) over a total of 84 days while being weighed once per week. As a result, it may be seen that, the body weight gain was suppressed by 8% in the mice subjected to fetal reprogramming by PPAR δ agonist compound (CMDD1111) as compared with the control group, as shown in FIG. 18.

[5] = test system: mice subjected to fetal reprogramming; test: Glucose tolerance test (GTT) of fetal-reprogrammed mice after high-fat feedstuff; format: in vivo; settings: GTT after 17 weeks high-fat feedstuff
Method: The present researchers conducted the glucose tolerance test (GTT) after the mice were fed with high-fat feedstuff for 17 weeks to induce diabetes. The experiment was conducted following the method proposed by Kelly, and challenged with over-night fasting in order to confirm the role thereof in the muscle. Glucose ([…]) was administered by using intraperitoneal injection, and then the blood glucose level change was measured for 2 hours. As a result, the fasting blood glucose level was lower, the maximum blood glucose concentration was lower, and the glucose clearance time was shorter in the mice of the administration group as compared with the mice of the control group (FIG. 19). At the same time, the insulin tolerance test was conducted (FIG. 20). To sum the above results up, it may be seen that animals subjected to fetal reprogramming by PPAR δ activation enhanced endurance due to an increase in slow muscle fibers and prevented and suppressed the occurrence of obesity and diabetes due to high-fat diet.

[6] = fetal-reprogrammed mouse muscle

In the case of `Cc1cc(SC(Cc2ccccc2)c2sc(-c3ccc(C(F)(F)F)cc3)nc2C)ccc1OCC(=O)O` (stereo not shown) [CMDD1111], the “growth inhibition or promotion (growth rate of fetus)” value ([1]; 3 weeks) is reported as “not observed”, the “deformity in skeleton staining” value ([1]; Alizaren red S and Alician blue dye) is reported as “not observed” and the “body weight versus vehicle group” value ([1]; as adults) is reported as “no difference”. The “side effects due to the administered material” value ([1]; gestation period, 10 mg/kg oral once per day) was “not observed”, the “weight of fetus group” value ([1]; immediately after birth, mother 10 mg/kg during gestation) was 1.37 ± 0.09 g and the “expression of Adiponectin (ADIPOQ)” value [2, 6] was 2.5 fold. The “expression of CaMKII B” value [2, 6] was 4.5 fold, the “expression of CaMKII D” value [2, 6] was 3.2 fold and the “expression of HDAC4, decreased by” value [2, 6] was 0.6 fold. The “expression of NDUFA12” value [2, 6] was 1.3 fold, the “expression of PGC-1α” value [2, 6] was 1.6 fold and the “expression of acyl Co-A dehydrogenase (ACAD10)” value [2, 6] was 2.0 fold. For the same compound, the “expression of acyl Co-A synthetase (ACSL)” value [2, 6] was 1.4 fold, the “expression of carnitine palmitoyl transferase 1a (CPT-1a)” value [2, 6] was 1.5 fold and the “expression of uncoupling protein 3 (UCP3)” value [2, 6] was 4.2 fold. For the same compound, the “expression of ATP2A2” value ([2]; versus control group) was 2.2 fold, the “expression of MYH6” value ([2]; versus control group) was 6.8 fold and the “expression of My17” value ([2]; versus control group) was 4.8 fold. The “expression of RYR2” value ([2]; versus control group) was 2.2 fold, the “expression of RYR3” value ([2]; versus control group) was 3.6 fold and the “expression of TNNI3” value ([2]; versus control group) was 5.8 fold. For the same compound, the expression of phospholamban ([2]; versus control group) was 3.2 fold, the “increase of retention time of cytosolic calcium” value [3] was 43% and the “retention time of cytosolic calcium” value [3] was 847 ± 77 s. For the same compound, the “body weight gain suppression versus control” value [4] was 8%, the “fasting blood glucose level versus control” value [5] was “lower” and the “glucose clearance time versus control” value [5] was “shorter”. The “maximum blood glucose concentration versus control” value [5] was “lower”.
